Assay results from patent US5036080A, “(D)-6-fluoro-2,3-dihydro-2',5-dioxo-spiro[4H-1-benzo pyran-4,4'-imidazolide]-2-carboxamide compounds” (Sanwa Kagaku Kenyusho Co., Ltd., priority 1988, dated 1991).

Experiments:
[1] = tested on: aldose reductase; settings: cited from earlier work
[2] = target: T1, aldose reductase (Rattus norvegicus, UniProt P07943); experiment: Inhibition of aldose reductase activity (procedure of Kador and Sharpless); type: biochemical; settings: water-soluble extracts of crystalline lenses from rats
T1 construct: water-soluble extracts of crystalline lenses extracted from tested rats; from tissue; host or cells: rat crystalline lens, water-soluble extract
Protocol: Using water-soluble extracts of crystalline lenses extracted from tested rats, the inhibition of these compounds was determined.

For `NC(=O)[C@H]1CC2(NC(=O)NC2=O)c2cc(F)ccc2O1` (single isomer, unassigned) [(d)-6-fluoro-2,3-dihydro-2',5'-dioxo-spiro[4H-1-benzopyran-4,4'-imidazolidine]-2-carboxamide], the “activity of inhibition to the aldose reductase in vitro and vivo tests, in comparison with other agents (in words)” value [1] is listed as “remarkable activity of inhibition to the aldose reductase”.
In the case of `COC(=O)N1C(=O)NC2(CC(C(N)=O)Oc3ccc(F)cc32)C1=O` (single isomer, unassigned) [Example 3], the IC50 [2] is reported as 0.045 µM.
For `CC(C)(C)C(=O)OCN1C(=O)NC2(C[C@H](C(N)=O)Oc3ccc(F)cc32)C1=O` (single isomer, unassigned) [Example 6, (d)-6-Fluoro-1'-pivaloyloxymethyl-2,3-dihydro-2',5'-dioxo-spiro[4H-1-benzopyran-4,4'-imidazolidine]-2-carboxamide], the IC50 [2] was 100 µM.
In the case of `Cc1ccc(S(=O)(=O)N2C(=O)NC3(C[C@H](C(N)=O)Oc4ccc(F)cc43)C2=O)cc1` (single isomer, unassigned) [Example 16-A, (d)-6-fluoro-1'-(p-toluenesulfonyl)-2,3-dihydro-2',5'-dioxo-spiro[4H-1-benzopyran-4,4'-imidazolidine]-2-carboxamide], the IC50 [2] is reported as 100 µM.
